According to the NIST ThermoML archive (doi:10.1021/je401097f):

Tests used:
[1] = refractive index (other wavelength) (dimensionless); conditions: 100 kPa, Liquid, Wavelength=632.8 nm, Standard Abbe refractometry
[2] = refractive index (other wavelength) (dimensionless); xn = mol fraction of the nth substance listed; conditions: 296.36 K, 100 kPa, Liquid, Wavelength=632.8 nm, Standard Abbe refractometry

O=[N+]([O-])c1ccccc1 [nitrobenzene]
[1]
Conditions | refractive index
288.97 K | 1.5501
289.62 K | 1.5497
290.5 K | 1.5493
291.45 K | 1.5488
292.36 K | 1.5484
293.38 K | 1.5479
294.4 K | 1.5474
295.5 K | 1.5469
301.66 K | 1.5439
302.72 K | 1.5433
303.85 K | 1.5428
304.98 K | 1.5423
306.08 K | 1.5418
307.2 K | 1.5412
308.25 K | 1.5407
309.34 K | 1.5402

O=[N+]([O-])c1ccccc1 [nitrobenzene] + CCCCCCCCC
[2]
Conditions | refractive index
x1 = 0.153 | 1.4162
x1 = 0.2 | 1.4207
x1 = 0.275 | 1.4284
x1 = 0.379 | 1.4401
x1 = 0.541 | 1.4612
x1 = 0.594 | 1.4691
x1 = 0.688 | 1.4838
x1 = 0.799 | 1.5035
x1 = 0.896 | 1.5231
x1 = 1 | 1.5467

CCCCCCCCC [nonane]
[1]
Conditions | refractive index
290.88 K | 1.4053
291.94 K | 1.4048
292.73 K | 1.4044
293.55 K | 1.404
294.5 K | 1.4036
295.51 K | 1.4031
296.48 K | 1.4026
297.42 K | 1.4022

CCCCCCCCC [nonane] + O=[N+]([O-])c1ccccc1
Conditions | refractive index
[2], x2 = 0 | 1.4029
